Data set [1] can be described thus: Metabolic stability in mouse liver microsomes. It is filed as in vitro ADME. Conditions: liver microsomes 0.5 mg/mL, NADPH, 1 μM compound, read-out: Mouse microsomal T1/2. Here is the method:
(§1) (1) Metabolic stability test: 150 μL of liver microsomes (final concentration was 0.5 mg/mL) were subjected to metabolic stability incubation, the system containing NADPH (final concentration was 1 mM), 1 μM of the test compound and the positive control midazolam or the negative control atenolol, the reaction was terminated with acetonitrile containing tinidazole at 0 min, 5 min, 10 min, and 30 min, respectively, then the mixture was vortexed for 10 min, and centrifuged at 15000 rmp for 10 min, 50 μL of the supernatant was injected into 96 well. The metabolic stability of the compound was calculated by measuring the relative reduction of the original drug. (See Table 3 for specific values)
A general note: Microsomes from liver hold many membrane-bound enzymes, among them those of drug oxidation.

A short description of data set [2]: Metabolic stability in dog liver microsomes. The settings on record: liver microsomes 0.5 mg/mL, NADPH, 1 μM compound, read-out: Dog microsomal T1/2. The format is in vitro ADME. As for the experimental part: as §1
A short description of data set [3]: Metabolic stability in rat liver microsomes. The format is in vitro ADME. The settings on record: liver microsomes 0.5 mg/mL, NADPH, 1 μM compound, read-out: Rat microsomal T1/2. As for the experimental part: as §1
The target of another data set is T1, BRD4-BD1 (Homo sapiens, UniProt O60885).
T1 construct: purchased ReactionBiologyCorp; (RBC)
Kind of data set: BRD4 AlphaScreen determination (BD1). The settings on record: AlphaScreen, protein binding inhibition; read-out: BRD4-BD1 IC50. The format is binding. Here is the method: (§2) (1) 1× Assay buffer was prepared according to the kit requirements of ReactionBiologyCorp. (RBC). (2) Compound concentration gradient preparation: the test compounds were tested at final concentrations starting at 10 μM, with 10 concentrations at 3-fold dilution and single well test was set for each concentration. The positive control compound(+)-JQ-1 was tested at final concentrations starting at 1 μM, with 10 concentrations at 3-fold dilution, and duplicated well test was set for each concentration. The solution was gradient diluted to the corresponding 1000-fold final concentration in a 384-well Source plate, and then 20 nL of the solution was transferred to the 384-well reaction plate with Echo550 to be measured. 20 nL of 100% DMSO was transferred to the Max well, and the highest concentration of the positive compounds were transferred to the Min wells. […] (6) 5 μL of 4× peptide solution was added to each well of the reaction plate, centrifuged at 1000 rpm for 1 min. (7) 10 μL of the assay solution was added, centrifuged at 1000 rpm for 60 seconds, the solution was mixed with gentle shaking, and incubated at room temperature for 60 minutes. (8) Reading with EnVision. (9) The IC50 values of the compounds for protein binding inhibition was obtained by fitting the dose-effect curve with the analytical software GraphPad Prism 5. (See Table 1 for specific values)

Another data set addresses T2, BRD4-BD2 (Homo sapiens, UniProt O60885).
T2 construct: purchased ReactionBiologyCorp; (RBC)
Put plainly: BRD4 AlphaScreen determination (BD2). Conditions: AlphaScreen, protein binding inhibition; read-out: BRD4-BD2 IC50. The format is binding. Here is the method: as §2

The next data set has as its system IEC6. Put plainly: Proliferation inhibition of IEC6 cells. It is filed as cell-based. Conditions: Rattus norvegicus, IEC-6; IEC6 cell line; read-out: proliferation inhibitory activity IC50. Here is the method:
(§3) The proliferation inhibitory activity of some of the embodiment compounds against different cell lines such as LNCAP (+R1881), SKM-1, 22RV1, DU145, MOLM13, MDA-PCA-2b, KASUMI 1, THP-1, KG-1, IEC6, H1299, etc., was tested using similar methods in test embodiment 2 and in the literature.

In data set [4] the test system is LNCAP, SKM-1, MOLM13, KASUMI 1, THP-1, KG-1. Kind of data set: Proliferation inhibition of different cell lines: most sensitive lines. It is filed as cell-based. The settings on record: some cell lines such as LNCAP, read-out: proliferation inhibitory activity IC50. Here is the method:
as §3

The next data set concerns H1299. Kind of data set: Proliferation inhibition of H1299 cells. It is filed as cell-based. Conditions: Homo sapiens, NCI-H1299; H1299 cell line; read-out: proliferation inhibitory activity IC50. Here is the method:
as §3

The next data set deals with MV4-11 cells. Kind of data set: Inhibition of proliferation of MV4-11 cells (CellTiter-Glo). The format is cell-based. The settings on record: Homo sapiens, 72 h. As for the experimental part:
Specific experimental steps: 1) Day 0: 96 inoculated cells were digested with trypsin and suspended in cell culture medium, the cell density was detected by an automatic cell counter and the cells were diluted with the culture medium to a suitable density, 100 μL of cell suspension was added to the 96-well plate, and the cell-free medium was used as a control well, and the wells were incubated in a 37° C., 5% CO2 cell incubator overnight; 2) Day 1: A total of 8 concentrations of the compound to be tested in the drug-treated cells were tested at 3-fold dilution, 10 μM was the starting assay concentration of the compound to be tested. Specific steps: 200× compound mother liquor was prepared, the compound was diluted with culture medium to a final concentration of […], that is, 3 μL of 200× compound was added to 197 μL of culture medium, 50 μL diluted compound was added to each well of the 96-well plate, and placed at 37° C., 5% CO2 cell culture incubator for 72 h; 3) Day 4: Cell viability detection: 96-well cell plate was first equilibrated to room temperature, 40 μL of CellTiter-Glo® reagent was added to each well, mixed on a shaker for 2 minutes to fully lyse the cells, incubated at room temperature for 10 minutes to stabilize the luminescence signal, and the luminescence value was read by the Envision microplate reader; 4) data processing was performed by GraphPad Prism 5.0 software to analyze the data, and nonlinear S-curve regression was used to fit the data to obtain a dose-effect curve, and from which the ICso value was calculated. Inhibition rate %=(DMSO treated cell wells−compound treated cell wells)/(DMSO treated cell wells−cell free medium wells)×100. The ICso value was obtained by the four-parameter regression method using the random software in the microplate reader. (See Table 2 for specific values)
(Cellular ATP, detected with luciferase, serves as a proxy for viable cell number.)

The subject of data set [5] is most AML cell lines and prostate cancer cell lines. Kind of data set: Proliferation inhibition of different cell lines: AML and prostate cancer lines. It is filed as cell-based. Conditions: read-out: proliferation inhibitory activity IC50. As for the experimental part:
as §3

In data set [6] the test system is MV 4-11 transplanted tumor. Put plainly: Growth inhibition of MV 4-11 transplanted tumor in nude mice. It is filed as in vivo. The settings on record: dose of 15 mpk, oral, daily. As for the experimental part: The tumor tissue in vigorous growth stage was cut into about 1.5 mm^3 and inoculated subcutaneously in the right armpit of nude mice under sterile conditions. The diameter of subcutaneous transplanted tumor in nude mice was measured with vernier caliper, and the animals were randomly divided into groups when the average tumor volume was about 130 mm^3. […] During the whole experiment, the diameter of the transplanted tumor was measured twice a week, and the weight of mice was weighed at the same time. The calculation formula of tumor volume (TV) was: TV=½×a×b^2, wherein a and b represent the length and width respectively. The relative tumor volume (RTV) was calculated according to the measurement results, and the calculation formula was: RTV=VT/v0. Wherein VO is the tumor volume measured during the administration in cage (i.e., d0), and Vt is the tumor volume at each measurement.

A short description of data set [7]: In vivo pharmacokinetics in mice. The settings on record: male, Balb c, mouse, plasma, po, 5 mg/kg. Here is the method: Six male SPF-grade SD rats or Balb c mice (Shanghai B&K laboratory animals) were divided into two groups and the test compounds were configured into suitable solutions or suspensions; one group was administered intravenously and one group was administered orally. Blood was collected by jugular vein puncture, and each sample was collected about 0.2 mL/time point, heparin sodium was used for anticoagulation, the blood collection time points were as follows: before administration and 5, 15 and 30 minutes, 1, 2, 4, 6, 8 and 24 h after administration, the blood sample was collected and placed on ice, centrifuged to separate the plasma (centrifugation conditions: 8000 rpm, 6 minutes, 2-8° C.), and the collected plasma was stored at −80° C. before analysis. The plasma samples were analyzed by LC-MS/MS.
According to the blood drug concentration data of the drug, the pharmacokinetic calculation software WinNonlin5.2 non-compartmental model was used to calculate the pharmacokinetic parameters AUC0-t, AUC0-∞, MRT0-∞, Cmax, Tmax, T1/2 and Vd and other parameters and their mean and standard deviation. In addition, the bioavailability (F) was calculated by the following formula.
For samples with a concentration lower than the lower limit of quantification, when calculating the pharmacokinetic parameters, the samples sampled before reaching Cmax should be calculated as zero, and samples sampled after reaching Cmax should be calculated as unquantifiable (BLQ).

SMILES strings stand for the structures.

What is called bioavailability is the share of a dose that reaches the circulation, judged against a reference dose that is usually intravenous.

Take `CCNC(=O)c1cc2c(=O)n(C)cc(-c3cc(C(C)(C)O)ccc3Oc3c(C)cc(F)cc3C)c2[nH]1`: the half-life at 1 μM in [1] amounted to 2.83 h; in data set [2], 3.25 h; in [3], 2.8 h.
On to `Cc1cc(F)cc(C)c1Oc1ccc(C(C)(C)O)cc1-c1cn(C)c(=O)c2cc(C(=O)NCC(F)F)[nH]c12` [Embodiment 11, N-(2,2-difluoroethyl)-7-(2-(4-fluoro-2,6-dimethylphenoxy)-5-(2-hydroxyprop-2-yl)phenyl)-5-methyl-4-oxo-4,5-dihydro-1H-pyrrolo[3,2-c] pyridine-2-amide], for which the half-life at 1 μM came out at 0.65 h in data set [1], 6.72 h in data set [2] and 1.28 h in [3]. Also, the IC50 on BRD4-BD1 is 109 nM; on BRD4-BD2, 0.57 nM; in the data set on IEC6 it was above 1000 nM; in data set [4], below 100 nM; with H1299 it was above 1000 nM; with MV4-11 cells, 20.4 nM. In data set [5], the IC50 is below 1000 nM.
For `CCNC(=O)c1cc2c(-c3cc(C(C)(C)O)ccc3Oc3c(C)cc(F)cc3C)cn(C)c(=O)c2[nH]1` [compound 1, N-ethyl-4-(2-(4-fluoro-2,6-dimethylphenoxy)-5-(2-hydroxyprop-2-yl)phenyl)-6-methyl-7-oxo-6,7-dihydro-1H-pyrrolo[2,3-c]pyridine-2-amide, reference compound], the results for the half-life at 1 μM in data set [1], in data set [2] and in data set [3] were 0.317 h, 1.13 h and 1.03 h, respectively. Besides, in data set [6], the “inhibitory rate (growth of transplanted tumor)” value is given as “about 60%”. Moreover, the bioavailability in [7] came to 25%. Further, the IC50 in the data set on MV4-11 cells worked out at 32 nM.

Values taken from patent US12459939B2 (SHANGHAI RINGENE BIOPHARMA CO., LTD., priority 2019, dated 2025).
